Experimental data from patent publication US6326526A, “Melatonin receptor-deficient mice and uses thereof” (Bristol-Myers Squibb Company, priority 2000, dated 2001).

How the values were obtained:
[1] = system: SCN slices from wild-type mice (single-unit electrical activity rhythm); test: SCN single unit recordings, phase shift of electrical activity rhythm, wild-type mice; format: cell-based, mouse
Procedure: (§1) Mice were housed in LD 12:12 for three weeks prior to experimentation. After adaptation, mice were killed by decapitation during the light phase of the LD cycle. Hypothalamic slices (500 μm) were prepared using a tissue chopper and incubated at 37° C., as previously described (Liu, C., and Gillette, M. U., J. Neurosci. 16:744-751, 1996). For most experiments, perfusion was discontinued during the 1-hour treatment with melatonin or vehicle (0.0001% ethanol in perfusion medium). For the pertussis toxin experiment, perfusion was discontinued for 6 hours, ending after the vehicle or melatonin treatment. At the end of treatment, the medium in the chamber was replaced, and perfusion was resumed with melatonin-free medium. Single units from the SCN were recorded the following day with glass microelectrodes (Liu, C., and Gillette, M. U., J. Neurosci. 16:744-751, 1996). Signals were amplified, filtered to a band width of 0.3-3 kHz, and stored (MacADIO II, GW Instruments, Somerville, Mass.). Voltage pulses exceeding preset recording threshold were detected on-line by custom software. Off-line analysis assigned a cluster of spikes of similar amplitude and width to each unit recorded (Meister, M., et al., J. Neurosci. Methods 51:95-101, 1994). Firing rate data were analyzed as previously described to determine the time-of-peak in the activity rhythm (Liu, C., and Gillette, M. U., J. Neurosci. 16:744-751, 1996).

[2] = system: rat SCN single-unit activity rhythm; conditions: rats; read-out: EC50 of phase-shifting effect on the single-unit activity rhythm; cited from earlier work
[3] = system: SCN slices from Mel1a receptor-deficient (homozygous mutant) mice (single-unit electrical activity rhythm); test: SCN single unit recordings, phase shift of electrical activity rhythm, Mel1a receptor-deficient mice; format: cell-based, mouse
Procedure: as §1

[4] = system: SCN slices from wild-type mice (multiunit activity); test: SCN multiunit recordings, melatonin-induced inhibition of neuronal firing, wild-type mice; format: cell-based, mouse
Procedure: (§2) Adult male wild-type and homozygous mutant mice were housed in LD 12:12 for a minimum of three weeks prior to experimentation. After the adaptation period, the mice were killed 2.0 to 4.5 hours after lights-on, and brains were rapidly dissected and placed into ACSF medium containing 116.3 mM NaCl, 5,4 mM KCl, 1.0 mM NaH2 PO4, 26.2 mM NaHCO3, 1.8 mM CaCl2, 0.8 mM MgSO4, 24.6 mM dextrose, and 5 mg/l Gentamicin sulphate, pH 7.5. A block of tissue containing the hypothalamus was dissected from the brain and transferred to a manual tissue chopper where coronal hypothalamic brain slices (400 μm in thickness) containing the SCN were prepared. Slices were placed in a Haas-type brain slice chamber (Haas H. L., et al., J. Neurosci. Methods 1:323-325, 1979; Medical Systems Corp.) and gauze strips placed over the slices in the vicinity of the SCN to raise the fluid level above the slices. They were continually superfused with ACSF medium warmed to 37° C. To record multiple-unit SCN electrical activity, a 76 μm-diameter, teflon-coated platinum-iridium wire electrode was lowered into the brain slice in the SCN (Bouskila, Y., and Dudek, F. E., Proc. Natl. Acad. Sci. USA 90:3207-3210, 1993). This electrical activity was amplified, and the number of electrical events was counted with a window discriminator (Fintronics Inc., Orange, Conn.). Data were collected and analyzed by computer, using Brainwave™ (Data Waver Technologies, Broomfield, Colo.) or Spike 2™ (Cambridge Electronic Design, Cambridge, Mass.) software. The average number of electrical events in successive 1-minute intervals was determined and plotted against the circadian time of recording. Slices were excluded if their viability was compromised on day 2 of recording.
Melatonin was prepared as a 100 μM stock solution in 100% ethanol, which was serially diluted with ACSF medium to yield four melatonin concentrations between 0.1 and 100 nM. A stock solution of vehicle (100% ethanol) was serially diluted with ACSF medium to yield the corresponding vehicle for each melatonin concentration. Melatonin or vehicle was applied by gravity flow in the bath for 30 minutes at each concentration before switching to the next solution. […] In the mouse experiments at circadian time 4.5-6.5 where only the single highest vehicle concentration was used as a comparator, the vehicle was applied for 30 minutes prior to the application of melatonin. A programmable automatic solution switching system (AutoMate Scientific Inc., Oakland, Calif.) was employed to time solution applications.
(§3) The maximum percent inhibition of SCN neuronal firing during each 30 minutes application of melatonin or vehicle was calculated with respect to the average multiunit firing rate during the 5 minute period prior to the first application of a series, and plotted.

[5] = system: SCN slices from Mel1a receptor-deficient (homozygous mutant) mice (multiunit activity); conditions: 0.1 to 100 nM, CT 9.5-11.5 and CT 4.5-6.5, relative to vehicle
Procedure: as §2, with “Slices were placed in a Haas-type brain slice chamber (Haas H. L., et al., J. Neurosci. Methods 1:323-325, 1979; Medical Systems Corp.) and gauze strips placed over the slices in the vicinity of the SCN to raise the fluid level above the slices. They were continually superfused with ACSF medium warmed to 37° C. To record multiple-unit SCN electrical activity, a 76 μm-diameter, teflon-coated platinum-iridium wire electrode was lowered into the brain slice in the SCN (Bouskila, Y., and Dudek, F. E., Proc. Natl. Acad. Sci. USA 90:3207-3210, 1993).” left out, “Slices were excluded if their viability was compromised on day 2 of recording.” left out
as §3

Structure (SMILES): COc1ccc2[nH]cc(CCNC(C)=O)c2c1 [melatonin]
- Phase advance in circadian phase ([1]; application at CT 9.5-10.5, preliminary studies of wildtype mice): approximately 4 hour
- Phase shift in the electrical activity rhythm ([1]; application from CT 5.5-6.5): did not elicit significant phase shifts
- CT of activity peak ([1]; application from CT 5.5-6.5, n=3): 6.8 ± 0.3 h
- EC50 [2]: < 0.1 nM
- Circadian time of the activity peak [3]: 6.6 ± 0.1 h
- Phase of the firing rhythm peak [3]: not shifted
- Phase shift (phase advance) in the electrical activity rhythm peak ([3]; 1 nM, CT 9.5-10.5): approximately 4 hour
- Phase advance in circadian phase ([3]; 1 nM, CT 9.5-10.5, after 5-hour static bath of normal medium, n=3): 3.2 ± 0.1 h
- inhibition at 0.001 µM ([4]; Mus musculus, 1 nM, at night CT 18, wild-type C57BL/6 mice, n=8): 33.9 ± 3.9%
- EC50 ([4]; Mus musculus, 0.1-100 nM, 30 min each, CT 4.5-6.5, day 2 in culture): 0.412 nM
- Percent inhibition of SCN firing rate ([4]; increasing melatonin 0.1-100 nM, CT 4.5-6.5 of day 2 (FIG. 4A)): over 30%
- Percent inhibition of SCN firing rate ([4]; melatonin 0.1-100 nM, CT 9.5-11.5 of day 1, plateau (FIG. 4B)): about 13%
- Inhibition of SCN multiunit activity [5]: unable to significantly inhibit SCN multiunit activity
